Laboratory results reported in US20070043034A1, “Chlorine Ion Uptake Modulators and Uses Thereof” (priority 2005, published 2007).

Assays:
NKCCl [1] = target: T1, NKCCl (Rattus norvegicus, UniProt E9PTX9); assay: Gramicidin perforated patch recording of ECl and Cli in CA1 pyramidal cells of acute hippocampal slices; type: cell-based; settings: 10 μM bumetanide
T1 construct: gramicidin perforated patch clamped CA1 pyramidal neuron in an acute hippocampal slice from a P5 rat; from tissue; host or cells: acute hippocampal slices of P3-P6 male Sprague-Dawley rats; CA1 pyramidal neurons
T1 sequence (E9PTX9 1-1203): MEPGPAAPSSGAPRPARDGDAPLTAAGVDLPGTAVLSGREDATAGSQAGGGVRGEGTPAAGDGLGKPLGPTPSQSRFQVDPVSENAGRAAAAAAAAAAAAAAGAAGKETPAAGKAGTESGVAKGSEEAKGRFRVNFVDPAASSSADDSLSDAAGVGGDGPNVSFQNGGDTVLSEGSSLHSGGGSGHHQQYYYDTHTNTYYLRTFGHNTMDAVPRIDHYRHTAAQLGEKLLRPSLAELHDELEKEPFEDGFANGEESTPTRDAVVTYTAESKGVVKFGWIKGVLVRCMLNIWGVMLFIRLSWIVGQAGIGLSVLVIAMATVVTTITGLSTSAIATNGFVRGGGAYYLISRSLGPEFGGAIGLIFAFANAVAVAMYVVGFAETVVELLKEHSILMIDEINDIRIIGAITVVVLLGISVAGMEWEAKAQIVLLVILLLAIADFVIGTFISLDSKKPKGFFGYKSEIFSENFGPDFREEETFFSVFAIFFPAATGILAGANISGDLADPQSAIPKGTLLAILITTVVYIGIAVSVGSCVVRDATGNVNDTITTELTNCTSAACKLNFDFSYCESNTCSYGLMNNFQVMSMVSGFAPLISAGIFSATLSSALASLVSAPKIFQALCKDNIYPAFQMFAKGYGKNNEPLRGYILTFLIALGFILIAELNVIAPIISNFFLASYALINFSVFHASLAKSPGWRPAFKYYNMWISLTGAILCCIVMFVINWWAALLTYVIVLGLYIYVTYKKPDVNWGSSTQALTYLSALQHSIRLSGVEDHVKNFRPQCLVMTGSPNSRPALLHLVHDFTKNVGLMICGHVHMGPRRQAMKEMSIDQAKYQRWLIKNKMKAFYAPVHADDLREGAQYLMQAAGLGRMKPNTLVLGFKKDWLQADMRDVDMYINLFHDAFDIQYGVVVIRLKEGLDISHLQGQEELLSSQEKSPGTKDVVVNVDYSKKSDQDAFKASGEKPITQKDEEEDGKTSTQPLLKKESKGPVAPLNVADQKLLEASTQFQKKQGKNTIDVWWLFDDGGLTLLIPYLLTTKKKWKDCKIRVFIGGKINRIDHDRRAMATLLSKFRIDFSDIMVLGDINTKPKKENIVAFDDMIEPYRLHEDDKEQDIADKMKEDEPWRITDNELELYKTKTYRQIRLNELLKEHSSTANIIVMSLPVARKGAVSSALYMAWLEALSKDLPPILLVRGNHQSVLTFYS

NKCCl [2] = target: T1, NKCCl; assay: Whole-cell voltage clamp, reversal potential of currents elicited by local GABA application (Egaba) in CA1 pyramidal cells; type: cell-based; settings: in the presence of bumetanide, n=6 cells from 8, p=0.005, control −37±2.72 mV
Text: In one example, direct effect of bumetanide on Egaba (excitatory GABAA) can be tested. Here, whole-cell voltage clamp recordings to measure the reversal potential of currents elicited by local application of GABA (10 pM, 10 ms pulse duration) in CA1 pyramidal cells were used.

[3] = system: 8.5 mM potassium-induced epileptiform activity in hippocampal slices; assay: 8.5 mM K+ induced epileptiform activity in hippocampal slices in vitro; type: cell-based, rat; settings: for decrease of averaged power of epileptiform activity: bumetanide 10 μM
Text: In this example, the effects of phenobarbital on recurrent interictal and ictal-like epileptiform activity in the hippocampal slices in vitro from P7-12 rats were studied. Interictal and ictal-like epileptiform activity are typical parameters studied when analyzing seizure activity in control and treated subjects. Phenobarbital exerts its pharmacological effects by allosteric activation of the GABAA receptor, increasing the duration of chloride ion channel opening, without affecting the frequency of opening or channel conductance. Simultaneous multi-site extracellular field potential records were performed in the CA3 pyramidal cell layer. To induce progressive neuronal firing, a bath application of 8.5 mM K+ was applied to the sections that developed to recurrent interictal and ictal-like epileptiform activities (FIG. 2A-2D). […] The power of extracellular field potential during 8.5 mM K+ (potassium) induced epileptiform activity in 0.1-1000 Hz frequency band, that include both gamma and fast ripple oscillations (FIG. 2A-2D).
In one exemplary method, experimental procedures were carried out on hippocampal slices of postnatal days 5 (P5) to P12 male Wistar rats. Animals were anaesthetized and decapitated and hippocampal slices were prepared by known methods. For example, hippocampal transverse slices were cut using Leica VT-100E vibratome (Leica Microsystems Nussloch GmbH, Germany) and kept in oxygenated aCSF at room temperature at least 1 hr before use. Hippocampal slices posterior to the midtemporal (caudal) part of the hippocampus (Paxinos and Watson, 1986) were used in the study.
In one example, electrophysiological recordings are gathered from individual slices and subsequently transferred to a conventional submerged-type chamber and continuously superfused with, for example, oxygenated aCSF. Whole-cell recordings were generated. Patch electrodes were used, made by known methods. For whole-cell recording in voltage-clamp mode pipettes were filled with a buffered solution.
From the example outlined above, extracellular field potentials were recorded and microelectrodes known in the art were used for simultaneous recordings of multiple unit activity (e.g. MUA; 500 Hz high-pass filter), population field activity in EEG band (1-100 Hz), and fast ripple oscillations (200-600 Hz).).
In one experimental example, bumetanide was tested for suppression of a 8.5 mM potassium-induced epileptiform activity in hippocampal slices from P7-9 and PI0-12 rats. […] Averaged power of epileptiform activity was decreased by 71±2.1% (n=9, p=1.57E-12) in P7-9 rat hippocampal slices and by 41.9±1.5% (n=6, p=2.13E-11) at P10-P12 (FIG. 3C).
In another aspect of this example, pharmaceutical compositions of the present invention may be tested for effects on the GABAA receptor using for example a GABAA-R antagonist before, during or after treatment with the pharmaceutical composition. In one example, GABAA receptor antagonists prevented the effect of bumetanide on power of epileptiform activity in the hippocampal slices from neonatal rats (FIGS. 3B and 3D). […] Here, an inhibition of synchronous network activity by bumetanide treatment in the perinatal hippocampal slices in this in vitro experiment was observed and these affects were partially reversed after treatment with bicuculline.

- holding current (NKCCl [1]): no change
- ECl (NKCCl [1]; P4-6 CA1 pyramidal cells, n=9, control −67.34±3.78 mV): −80.14±4.61 mV
- lowering of Cli (NKCCl [1]; n=9, P=0.0006): 37±0.05%
- Cli (NKCCl [1]; n=9, control 12.00±1.47 mM): 7.62 ± 1.14 mM
- Egaba (reversal potential of currents elicited by local application of GABA) (NKCCl [2]): −40.35+2.73 mV
SMILES: CCCCNc1cc(C(=O)O)cc(S(N)(=O)=O)c1Oc1ccccc1 [bumetanide, 3-(aminosulfonyl)-5-(butylamino)-4-phenoxybenzoic acid]
- decrease of averaged power of epileptiform activity ([3]; P7-9 rat hippocampal slices, n=9): 71±2.1%
- decrease of averaged power of epileptiform activity ([3]; P10-P12 rat hippocampal slices, n=6): 41.9±1.5%
- increase of IED frequency ([3]; bumetanide 10 μM in the presence of bicuculline 10 μM, P7-9 slices, n=6, p=0.008): 22.8 ± 6.4%
- decrease of IED length ([3]; bumetanide 10 μM in the presence of bicuculline 10 μM, P7-9 slices, p=0.8): 2.2±8%
- averaged power of epileptiform discharges ([3]; bumetanide 10 μM in the presence of bicuculline 10 μM, p=0.35): did not change
- effect on epileptiform activity ([3]; hippocampal slices from P7-9 rats, bath application phenobarbital 100 μM (n=6) or bumetanide 10 μM (n=10)): strongly suppressed interictal and ictal-like epileptiform activity
- effect on epileptiform activity ([3]; hippocampal slices from P10-12 rats, bath application phenobarbital 100 μM (n=7) or bumetanide 10 μM (n=6)): depressed ictal-like epileptiform activity
